Source: PubChem BioAssay (NCI)
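The compound was tested at five concentrations on cells cultured in 96-well plates, with a 48-hour exposure period. Here, GI50 denotes the concentration required for 50% inhibition of growth. TGI: concentration producing complete growth inhibition.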

Legend:
Assay in all cases: NCI-60 cell line screen, 48 h
[1] = system: ACHN renal
[2] = system: MALME-3M melanoma
[3] = system: TK-10 renal
[4] = system: CCRF-CEM leukemia
[5] = system: OVCAR-3 ovarian
[6] = system: MDA-MB-231 breast
[7] = system: NCI/ADR-RES ovarian
[8] = system: T-47D breast
[9] = system: LOX IMVI melanoma
[10] = system: HCC-2998 colon

Row | Structure (SMILES) | TGI [1] [µM] | TGI [2] [µM] | TGI [3] [µM] | TGI [4] [µM] | TGI [5] [µM] | TGI [6] [µM] | TGI [7] [µM] | TGI [8] [µM] | TGI [9] [µM] | TGI [10] [µM] | GI50 [1] [µM] | GI50 [2] [µM] | GI50 [3] [µM] | GI50 [5] [µM] | GI50 [6] [µM] | GI50 [7] [µM] | GI50 [8] [µM] | GI50 [9] [µM] | GI50 [10] [µM] | GI50 [4] [µM]
1 | CCN(CC)Cc1c(/C=C\c2cc(OC)c(OC)c(OC)c2)ccc(OC)c1O | > 100 | > 100 | > 100 | > 100 | 6.49 | > 100 | 6.29 | > 100 | > 100 | 20.4 |  |  |  |  |  |  |  |  |  | 
2 | O=C(c1ccco1)c1c(C(F)(F)F)n([O-])c2ccc(Cl)cc2[n+]1=O | 0.482 | 21.3 | 1.02 | 0.838 | 3.92 | 1.41 | 10.3 | 3.55 | 0.287 | 0.216 | 0.137 | 5.86 | 0.363 | 1.11 | 0.376 | 0.819 | 1.41 | 0.0951 | 0.101 | 
3 | C[C@@H](Oc1ccc(C(=O)NS(=O)(=O)C(C)(C)C)cc1C(F)(F)F)c1ccc(Oc2ccccc2)cn1 | 14.5 | 26.7 | 14.7 | 16.4 | 5.47 | 15.5 | 17.2 | 32.5 | 10.8 | 11.3 | 3.59 | 10.8 | 3.05 | 1.88 | 3.6 | 3.7 | 4.46 | 2.8 | 2.76 | 2.52
4 | CN(C)c1ccc(/C=C/C2=[N+](C)c3ccccc3C2(C)C)cc1 | 12.8 | 13.1 | 32.5 | > 100 | 12.3 | 20.9 | > 100 | 9.29 | 10.6 | 11.5 | 1.38 | 0.662 | 1.06 | 0.301 | 1.51 | 13.7 | 0.401 | 0.339 | 1.35 | 0.456
5 | CC(=O)OC12COC1CC(O)C1(C)C(=O)C(O)C3=C(C)C(O)CC(O)(C(OC(=O)c4ccccc4)C21)C3(C)C (centres undefined) | > 100 | > 100 | > 100 | > 100 | > 39.2 | > 100 | > 100 | > 100 | > 100 | 59.3 |  |  |  |  |  |  |  |  |  | 
6 | COc1ccc(/C=C/C(=O)c2ccc(OC)c(OC)c2)cc1O | > 100 | 31.7 | 30.4 | 23.9 | 6.31 | 31.8 | 49.1 | 25.5 | 18.6 | 22.1 | 6.15 | 15.8 | 11.4 | 2.56 | 4.76 | 3.88 | 5.74 | 5.69 | 9.1 | 3.51
7 | CCN(CC)C1CCC(Nc2c(C(C)=O)cnc3ccc(-c4ccc(O)c(Cl)c4)cc23)CC1 (centres undefined) | > 37.8 | 16.9 | > 100 | 6.26 | 3.15 | 12.5 | 5.55 | > 100 | 1.58 | 12.9 | 0.485 | 0.941 | 3.52 | 0.38 | 0.741 | 0.821 | 1.94 | 0.336 | 1.63 | 0.385
8 | Cn1c(=O)c(Oc2ccc(F)cc2F)cc2cnc(NC3CCS(=O)(=O)CC3)nc21 | > 25 | > 25 | > 25 | > 25 | > 25 | > 25 | > 25 | > 25 | > 25 | > 25 | > 14.3 | > 25 | > 25 | > 25 | > 22 | > 25 | > 19.8 | > 25 | > 25 | > 25
9 | Clc1ccc(-c2cc(-c3ccccc3)nc(NCCNc3ccnc4cc(Cl)ccc34)n2)cc1 | 3.24 | 3.3 | 3.42 | 5.56 | 3.36 | 3.57 | 3.4 | 3.45 | 3.7 | 3.56 | 1.72 | 1.71 | 1.8 | 1.77 | 1.88 | 1.66 | 1.54 | 1.89 | 1.85 | 2.14
